Source: patent US20220242874A1, “CAMPTOTHECIN DERIVATIVES” (SUN PHARMA ADVANCED RESEARCH COMPANY LIMITED, priority 2019, published 2022)
Where a name gives a salt, the structure may show the parent alone. Read-outs that look alike come from different tables or passages of the source.

Experiments:
[1] = Buffer stability (phosphate buffer, 37° C., HPLC); assay type: physicochemical
Description: The representative compounds were first dissolved in a minimum quantity of DMSO in a volumetric flask and diluted up to the mark with diluent (water: acetonitrile 30:70). […] After the elapsed time, the buffer samples were diluted 4 times with acetonitrile and injected into an HPLC system. Quantification of representative compounds was done by HPLC.
HPLC method: Chromatographic separation was achieved on a Hypersil BDS C18 (100×4.6 mm, 5 μ) column using 25 mM KH2PO4 buffer (pH 7 with TEA): acetonitrile, 90:10 v/v as mobile phase-A and 25 mM KH2PO4 buffer (pH 7 with TEA): acetonitrile 30:70 v/v as mobile phase-B. The gradient started with initially 5% B to 45% B in 10 mins followed by 80% B in 22 mins and held up to 25 mins and then returned to initial conditions at 26 mins and continued up to 30 mins. The injection volume was kept 10 μL and the flow rate was kept at 1.0 mL/min. The UV-Vis Detector was set at 220 nm, the column oven was set at 37° C. and the sample cooler was set at […]. Total chromatographic runtime was 30 min.

HT-29 cells = assay: In-vitro cancer cell growth inhibition assay (MTT); assay type: cell-based; conditions: Homo sapiens, HT-29, 96 h, read-out: IC50 (nM) HT-29
Description: (§1) The compounds of the present invention were evaluated for their ability to inhibit the growth of various cell line models of small cell lung cancer (SCLC), colon cancer, pancreatic cancer and triple negative breast cancer (TNBC) in-vitro. Details of the cell lines and their respective complete growth media are described in Table 3. The growth inhibition assay was carried out as described below. Briefly, cells in complete growth media were seeded in 96-well plates at appropriate cell densities (seeding density details described in Table 3) and incubated at 37° C., 5% CO2 (3-4 hours for NCI-H526, NCI-H69, NCI-H187 and overnight for the rest of the cells). Serial dilutions of test compound in DMSO were added to the cells while maintaining the final DMSO concentration of 0.4%-0.5% in the well. Plates were incubated for 96-144 h (the exact duration for each assay is described in Table 3) at 37° C., 5% CO2. Subsequently, MTT (final concentration 0.5 mg/mL in media) was incubated with the cells at 37° C., 5% CO2 for 4-5 hours. The formazan crystals were dissolved overnight at 37° C., 5% CO2 using 100 μL extractant (10% SDS in 0.01N HCl) and quantified using absorbance at 570 nm with reference wavelength 630 nm. Growth inhibition was represented as percent decrease in absorbance compared to vehicle treated cells.

NCI H526 cells = assay: In-vitro cancer cell growth inhibition assay (MTT); assay type: cell-based; conditions: Homo sapiens, NCI-H526, 96-144 h, read-out: IC50 (nM) NCI H526
Description: as §1

NCI H69 cells = assay: In-vitro cancer cell growth inhibition assay (MTT); assay type: cell-based; conditions: Homo sapiens, NCI-H69, 144 h, read-out: IC50 (nM) NCI H69
Description: as §1

PANC-1 cells = assay: In-vitro cancer cell growth inhibition assay (MTT); assay type: cell-based; conditions: Homo sapiens, PANC-1, 96 h, read-out: IC50 (nM) PANC-1
Description: as §1

NCI H187 cells = assay: In-vitro cancer cell growth inhibition assay (MTT); assay type: cell-based; conditions: Homo sapiens, NCI-H187, read-out: IC50 (nM) NCI H187
Description: as §1, with “Plates were incubated for 96-144 h (the exact duration for each assay is described in Table 3) at 37° C., 5% CO2.” left out

MDA-MB-231 cells = assay: In-vitro cancer cell growth inhibition assay (MTT); assay type: cell-based; conditions: Homo sapiens, MDA-MB-231, 96 h, read-out: IC50 (nM) MDA-MB-231
Description: as §1

MDA-MB-468 cells = assay: In-vitro cancer cell growth inhibition assay (MTT); assay type: cell-based; conditions: Homo sapiens, MDA-MB-468, 96 h, read-out: IC50 (nM) MDA-MB-468
Description: as §1

MX-1 cells = assay: In-vitro cancer cell growth inhibition assay (MTT); assay type: cell-based; conditions: Homo sapiens, MX1, 144 h, read-out: IC50 (nM) MX-1
Description: as §1

[2] = mouse, 2000 ng/mL, pH 5.5
Description: Aliquot of 100 μL were taken from stability samples in pre-labelled micro-centrifuge tubes. 5 μL of cetirizine working internal standard (5 μg/mL) was added to each tube and vortexed well. 1 mL acetonitrile was added to each tube and vortexed well and then centrifuge at 10000 RPM for 5 min at room temperature. The supernatant was collected in ria vials and evaporated to dryness under nitrogen stream. The samples were reconstituted in 1 mL of 0.1% formic acid in water: acetonitrile 30:70 v/v. The prepared samples were analyzed using LC-MS/MS method. Quantification was done against SN-38 standard, prepared at 2000 ng/mL concentration. SN-38 standard prepared by spiking 5 μL of SN-38 working standard to 95 μL of blank mice tumor homogenate to achieve 2000 ng/mL concentration and vortexed well and processed as described.
LC-MS/MS Method: Chromatographic separation was achieved on Inertsil C8-3 (50×4.6 mm, 5 μ) with a flow rate of 250 μL/min and an injection volume of 10 μL. The sample cooler was maintained at 10° C. The column oven temperature was set to 40° C. The mobile phase consisted of 0.1% formic acid in Milli Q water and acetonitrile in the ratio of 30:70 v/v, respectively. […] The overall chromatographic run time was 4.0 minutes.
Detection was performed by tandem mass spectrometry (TSQ Quantum, Discovery MAX, Thermo Electron Corporation) and peak areas were integrated using LCquan software version 2.9 QF1.
0 hr standard area was considered as 100% for calculation.

SMILES	% of Unconverted Compounds of Formula I ([1]; pH 4.7, 0 hr, 200 μg/ml) [%]	% of Unconverted Compounds of Formula I ([1]; pH 4.7, 2 hr, 200 μg/ml) [%]	% of Unconverted Compounds of Formula I ([1]; pH 4.7, 4 hr, 200 μg/ml) [%]	% of Unconverted Compounds of Formula I ([1]; pH 4.7, 6 hr, 200 μg/ml) [%]	% of Unconverted Compounds of Formula I ([1]; pH 4.7, 8 hr, 200 μg/ml) [%]	% of Unconverted Compounds of Formula I ([1]; pH 6.0, 0 hr, 200 μg/ml) [%]	% of Unconverted Compounds of Formula I ([1]; pH 6.0, 2 hr, 200 μg/ml) [%]	% of Unconverted Compounds of Formula I ([1]; pH 6.0, 4 hr, 200 μg/ml) [%]	% of Unconverted Compounds of Formula I ([1]; pH 6.0, 6 hr, 200 μg/ml) [%]	% of Unconverted Compounds of Formula I ([1]; pH 6.0, 8 hr, 200 μg/ml) [%]	% of Unconverted Compounds of Formula I ([1]; pH 7.4, 0 hr, 200 μg/ml) [%]	% of Unconverted Compounds of Formula I ([1]; pH 7.4, 2 hr, 200 μg/ml) [%]	% of Unconverted Compounds of Formula I ([1]; pH 7.4, 4 hr, 200 μg/ml) [%]	% of Unconverted Compounds of Formula I ([1]; pH 7.4, 6 hr, 200 μg/ml) [%]	% of Unconverted Compounds of Formula I ([1]; pH 7.4, 8 hr, 200 μg/ml) [%]	IC50 (HT-29 cells) [nM]	IC50 (NCI H69 cells) [nM]	IC50 (PANC-1 cells) [nM]	IC50 (NCI H187 cells) [nM]	further results
CCc1c2c(nc3ccc(O)cc13)-c1cc3c(c(=O)n1C2)COC(=O)[C@@]3(CC)OC(=O)CCCSSCCCC(=O)Nc1ccc(N2CCN(C)CC2)cc1.Cl [Compound I.1, 4-[3-(4-(4-Methylpiperazin-1-yl)phenylcarbamoyl)propyldisulfanyl][(4S)-4,11-diethyl-3,4,12,14-tetrahydro-9-hydroxy-1H-pyrano[3′,4′:6,7]indolizino[1,2-b]quinoline-3,14-(4H,12H)dione-4-yl]butyrate hydrochloride]	100	96.3	97.4	100.0	100	100	95.4	97.1	97.2	97.1	100	97.7	95.5	100.0	100					
CCc1c2c(nc3ccc(O)cc13)-c1cc3c(c(=O)n1C2)COC(=O)[C@@]3(CC)OC(=O)OCCSSCCOC(=O)N(C)c1ccc(N2CCN(C)CC2)cc1.Cl [Compound I.3, 2-(2-{N-Methyl-N-[4-(4-methylpiperazin-1-yl)phenyl]carbamoyloxy}ethyldisulfanyl)ethyl [(4S)-4,11-diethyl-3,4,12,14-tetrahydro-9-hydroxy-1H-pyrano[3′,4′:6,7]indolizino[1,2-b]quinoline-3,14-(4H,12H)dione-4-yl] carbonate hydrochloride]	100	100	100	100	100	100	93.8	97.8	98.2	100	100	100	100	100	100	43.7	1.2	862	0.68	IC50 (NCI H526 cells): 1.91 nM
CCc1c2c(nc3ccc(O)cc13)-c1cc3c(c(=O)n1C2)COC(=O)[C@@]3(CC)OC(=O)OCCSSCCNC(=O)c1ccc(CN2CCN(C)CC2)cc1 [Compound I.6, 2-(2-{4-[4-Methylpiperazin-1-ylmethyl]benzoylamino}ethyldisulfanyl)ethyl [(4S)-4,11-diethyl-3,4,12,14-tetrahydro-9-hydroxy-1H-pyrano[3′,4′:6,7]indolizino[1,2-b]quinoline-3,14-(4H,12H)dione-4-yl] carbonate dihydrochloride]																15.7	2.3	1140	0.23	% of Unconverted Compounds of Formula I ([1]; pH 4.7, 0 hr, 100 μg/ml (footnote *)): 100%; % of Unconverted Compounds of Formula I ([1]; pH 4.7, 2 hr, 100 μg/ml (footnote *)): 96.8%; % of Unconverted Compounds of Formula I ([1]; pH 4.7, 4 hr, 100 μg/ml (footnote *)): 89.8%; % of Unconverted Compounds of Formula I ([1]; pH 4.7, 8 hr, 100 μg/ml (footnote *)): 89.0%; % of Unconverted Compounds of Formula I ([1]; pH 6.0, 0 hr, 100 μg/ml (footnote *)): 100%; % of Unconverted Compounds of Formula I ([1]; pH 6.0, 2 hr, 100 μg/ml (footnote *)): 89.9%; % of Unconverted Compounds of Formula I ([1]; pH 6.0, 4 hr, 100 μg/ml (footnote *)): 89.4%; % of Unconverted Compounds of Formula I ([1]; pH 6.0, 6 hr, 100 μg/ml (footnote *)): 82.5%; % of Unconverted Compounds of Formula I ([1]; pH 6.0, 8 hr, 100 μg/ml (footnote *)): 84.3%; % of Unconverted Compounds of Formula I ([1]; pH 7.4, 0 hr, 100 μg/ml (footnote *)): 100%; % of Unconverted Compounds of Formula I ([1]; pH 7.4, 2 hr, 100 μg/ml (footnote *)): 90.7%; % of Unconverted Compounds of Formula I ([1]; pH 7.4, 4 hr, 100 μg/ml (footnote *)): 81.4%; % of Unconverted Compounds of Formula I ([1]; pH 7.4, 6 hr, 100 μg/ml (footnote *)): 83.7%; % of Unconverted Compounds of Formula I ([1]; pH 7.4, 8 hr, 100 μg/ml (footnote *)): 84.6%; IC50 (MDA-MB-231 cells): 158 nM; IC50 (MDA-MB-468 cells): 13.7 nM; IC50 (MX-1 cells): 5.4 nM
CCc1c2c(nc3ccc(OC(=O)N4CCC(N5CCCCC5)CC4)cc13)-c1cc3c(c(=O)n1C2)COC(=O)[C@]3(O)CC [Irinotecan, irinotecan hydrochloride]																				% Remaining in tumor lysate ([2]; 0 h): 100.0%; Concentration of SN-38 formed from the substance ([2]; 0 h): 0.0 ng/mL; % Remaining in tumor lysate ([2]; 1 h): 110.5%; Concentration of SN-38 formed from the substance ([2]; 1 hr): 9.4 ng/mL; % Remaining in tumor lysate ([2]; 2 h): 95.4%; Concentration of SN-38 formed from the substance ([2]; 2 hr): 17.5 ng/mL; % Remaining in tumor lysate ([2]; 4 h): 93.1%; Concentration of SN-38 formed from the substance ([2]; 4 hr): 22.8 ng/mL; % Remaining in tumor lysate ([2]; 6 h): 82.3%; Concentration of SN-38 formed from the substance ([2]; 6 hr): 25.5 ng/mL; Concentration of SN-38 formed from the substance ([2]; 8 h): 29.6 ng/mL
